Experimental data reported in patent US4552872A, “Penetrating topical pharmaceutical compositions containing corticosteroids” (priority 1984, dated 1985).

Legend:
dermatitis = assay: Topical treatment of dermatitis in a human, composition of Example 32; format: in vivo; conditions: 5 mg/cm^2 of skin three times daily for five days; noted after 48 hours
Method: The above composition is applied at the afflicted situs of a human afflicted with dermatitis at a rate of 5 mg of composition/cm^2 of skin three times daily for a period of five days.

[1] = Percutaneous penetration study, Franz diffusion apparatus, human skin (*); format: in vitro ADME; conditions: Example 8; for reduction of penetration on addition of the proscribed compound, in words: compared with octanoic acid (reduces penetration by 50%)
Method: The following Penetration Studies were carried out in the following manner. […] A normal saline solution is added to the lower diffusion cell, abutting the subcutaneous side of the skin. The test composition (comprising a solution of active or actives added to the carrier at the indicated formulation in a conventional manner by thoroughly mixing) is added to the diffusion cell abutting the epidermal side of the skin at the levels indicated.
This cell assembly is kept at a constant temperature of about 31° C. At appropriate or desired intervals (these are the time designations given in the following examples) each diffusion cell assembly is opened and the diffusate from the cell abutting the subcutaneous side of the skin is withdrawn. Drug actives in a diffusate is measured using standard analytical techniques. Each trial is run on a separate sample of skin.
All ratios represented by A/B, or A/B/C, and all percentages, are by weight. The compounds described as C12-18 OH are the straight chain, saturated, normal alcohols. EtOH is ethanol. The term mcg=microgram.

[2] = compared with hydrocortisone; cited from earlier work

| Compound | reduction of inflammation (dermatitis) | reduction of penetration on addition of the proscribed compound, in words [1] | further results |
| --- | --- | --- | --- |
| CCCCC(=O)O[C@]1(C(=O)CO)[C@@H](C)C[C@H]2[C@@H]3CCC4=CC(=O)C=C[C@]4(C)[C@@]3(F)[C@@H](O)C[C@@]21C [betamethasone valerate] | Substantially similar results |  |  |
| CCCCCCCCCCCCCCCCO [cetyl alcohol] |  | Substantially similar results |  |
| CCCCCCCCCC(=O)O [decanoic acid] |  | Substantially similar results |  |
| CC1(C)O[C@@H]2C[C@H]3[C@@H]4C[C@H](F)C5=CC(=O)C=C[C@]5(C)[C@@]4(F)[C@@H](O)C[C@]3(C)[C@]2(C(=O)CO)O1 [fluocinolone, acetonide, Fluocinolone acetonide] | Substantially similar results |  |  |
| COc1c(C(=O)OCC(=O)[C@@]23OC(C)(C)O[C@@H]2C[C@H]2[C@@H]4CCC5=CC(=O)C=C[C@]5(C)[C@@]4(F)[C@@H](O)C[C@@]23C)cc2ccccc2c1Cc1c(OC)c(C(=O)OCC(=O)[C@@]23OC(C)(C)O[C@@H]2C[C@H]2[C@@H]4CCC5=CC(=O)C=C[C@]5(C)[C@@]4(F)[C@@H](O)C[C@@]23C)cc2ccccc12 [flupamesone] | Substantially similar results |  |  |
| CCCCCCCC(=O)O [octanoic acid] |  |  | reduction of penetration on addition of the proscribed compound ([1]; 1% Triamcinolone in Propylene Glycol + 2% C14 OH, human skin, 0-72 hrs.): 50% |
| C[C@]12C=CC(=O)C=C1CC[C@@H]1[C@@H]2[C@@H](O)C[C@@]2(C)[C@H]1CC[C@]2(O)C(=O)CO [prednisolone] |  |  | change of mineralocorticoid effects by introduction of a double bond at the 1,2 position into hydrocortisone [2]: reducing mineralo corticoid effects |
| CCCCCCCCCCCCCCCCCCO [stearyl alcohol] |  | Substantially similar results |  |
| CC1(C)O[C@@H]2C[C@H]3[C@@H]4CCC5=CC(=O)C=C[C@]5(C)[C@@]4(F)[C@@H](O)C[C@]3(C)[C@]2(C(=O)CO)O1 [triamcinolone, Triamcinolone acetonide] | Substantially similar results |  |  |
